US6410740B1, “Heterocyclylmethyl-substituted pyrazol derivatives” (Bayer Aktiengesellschaft, priority 1996, dated 2002)
Where two headings read alike, the source gives them in different places.

Assays:
[1] = biological target: T1, soluble guanylate cyclase (Sus scrofa, UniProt A0A4X1U7N1+A0ACM8Q7I6); test: Stimulation of soluble guanylate cyclase in primary endothelial cells (intracellular cGMP, radioimmunological); format: cell-based; conditions: test substance 1 μM, 10-minute incubation, primary pig aortic endothelial cells, with or without SNP 1 μM (not stated which); for activation at 1 µM: 10 min, read-out: % increase in cGMP
T1 construct: endogenous in cells; host or cells: primary endothelial cells from pig aorta
T1 sequence (A0A4X1U7N1 1-619): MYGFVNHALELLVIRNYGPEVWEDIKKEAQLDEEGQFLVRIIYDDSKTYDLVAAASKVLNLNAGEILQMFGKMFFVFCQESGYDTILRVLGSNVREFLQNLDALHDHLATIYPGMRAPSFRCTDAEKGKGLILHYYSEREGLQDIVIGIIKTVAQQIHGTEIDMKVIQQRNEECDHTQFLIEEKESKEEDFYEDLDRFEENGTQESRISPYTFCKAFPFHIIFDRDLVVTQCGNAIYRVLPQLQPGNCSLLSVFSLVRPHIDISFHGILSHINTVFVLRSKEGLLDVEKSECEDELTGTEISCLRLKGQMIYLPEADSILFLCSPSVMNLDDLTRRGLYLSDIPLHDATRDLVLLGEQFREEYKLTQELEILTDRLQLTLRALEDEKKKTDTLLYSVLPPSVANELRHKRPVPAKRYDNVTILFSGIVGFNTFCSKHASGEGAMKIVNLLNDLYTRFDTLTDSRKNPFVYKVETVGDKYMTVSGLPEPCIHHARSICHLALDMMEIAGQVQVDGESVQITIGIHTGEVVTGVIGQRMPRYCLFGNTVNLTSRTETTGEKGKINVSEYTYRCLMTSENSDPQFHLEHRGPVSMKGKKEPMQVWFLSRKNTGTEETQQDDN
T1 sequence (A0ACM8Q7I6 1-688): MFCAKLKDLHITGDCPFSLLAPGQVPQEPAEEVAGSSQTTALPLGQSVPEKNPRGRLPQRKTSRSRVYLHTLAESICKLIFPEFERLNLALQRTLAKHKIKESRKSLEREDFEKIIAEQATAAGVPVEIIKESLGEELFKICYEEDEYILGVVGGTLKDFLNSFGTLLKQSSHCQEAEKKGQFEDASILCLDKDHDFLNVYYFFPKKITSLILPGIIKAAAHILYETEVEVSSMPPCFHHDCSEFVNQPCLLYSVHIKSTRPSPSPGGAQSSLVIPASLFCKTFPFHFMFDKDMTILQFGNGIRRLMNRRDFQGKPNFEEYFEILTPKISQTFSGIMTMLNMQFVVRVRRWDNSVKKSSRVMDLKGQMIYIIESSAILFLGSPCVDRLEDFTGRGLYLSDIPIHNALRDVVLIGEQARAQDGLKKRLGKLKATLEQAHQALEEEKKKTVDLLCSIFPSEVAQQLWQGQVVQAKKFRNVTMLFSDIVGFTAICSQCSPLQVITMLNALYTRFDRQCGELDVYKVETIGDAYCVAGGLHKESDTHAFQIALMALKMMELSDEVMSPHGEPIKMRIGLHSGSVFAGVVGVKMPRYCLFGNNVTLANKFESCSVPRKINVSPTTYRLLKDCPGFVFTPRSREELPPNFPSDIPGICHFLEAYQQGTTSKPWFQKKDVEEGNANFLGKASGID
Description: Stimulation of Soluble Guanylate Cyclase in Primary Endothelial Cells
(§1) Primary endothelial cells were isolated from pig aortas by treatment with collagenase solution. The cells were then cultured in a culture medium until confluence was reached. For the investigations, the cells were subjected to passaging, sown in cell culture plates and subcultured until confluence was reached. To stimulate the endothelial guanylate cyclase, the culture medium was suctioned off and the cells were washed once with Ringer's solution and incubated in stimulation buffer with or without an NO donor (sodium nitroprusside, SNP, 1 μM). Thereafter, the test substances (final concentration 1 μM) were pipetted onto the cells. At the end of the 10-minute incubation period, the buffered solution was suctioned off and the cells were lysed at −20° C. for 16 hours. The intracellular cGMP was then determined radioimmunologically.
as §1, with “sucked” for “suctioned”
as §1, with “without” for “without an”, “buffer” for “buffered”

[2] = tested on: rabbit aortic rings precontracted with phenylephrine; test: Vessel-relaxing action in vitro on isolated aortic rings precontracted with phenylephrine; conditions: rabbit aorta rings, phenylephrine contraction
Description: Vessel-relaxing Action in vitro
Rings 1.5 mm wide of an aorta isolated from a rabbit are introduced individually, under pretension, in 5 ml organ baths with Krebs-Henseleit solution warmed to 37° C. and gassed with carbogen. The contraction force is amplified and digitalized and recorded in parallel on a line recorder. To generate a contraction, phenylephrine is added cumulatively to the bath in an increasing concentration.
(§2) After several control cycles, the substance to be investigated is investigated in each further pass in each case in an increasing dosage, and a comparison is made with the level of the contraction achieved in the last preliminary pass. The concentration necessary to reduce the level of the control value by 50% (IC50) is calculated from this. The standard application volume is 5 μl.
as §2, with “this.” for “this. The standard application volume is 5 μl.”
The standard application volume is 5 μl.

[3] = Oryctolagus cuniculus, embodiment II
[4] = Oryctolagus cuniculus, embodiment III
[5] = Oryctolagus cuniculus, iv, embodiment IV

| activation at 1 µM ([1]; embodiment II) | IC50 [2, 3] | Compound | other results |
| --- | --- | --- | --- |
| 225% | 13 µM | OCc1cccc(-c2nn(Cc3ccccc3)c3ccccc23)n1 [II-36, 1-Benzyl-3-(6-hydroxymethyl-2-pyridyl)indazole] | – |
| 611% | 10 µM | Cc1ccnc(-c2nn(Cc3ccccc3)c3ccccc23)n1 [II-42] | – |
| > 1000% | – | Cc1cnc(-c2nn(Cc3ccccc3C#N)c3ccccc23)nc1C [II-44] | – |
| 326% | – | CCOC(OCC)c1nc(-c2nn(Cc3ccccc3)c3ccccc23)ncc1C [II-45] | – |
| 240% | – | Cc1nc(-c2nn(Cc3ccccc3)c3ccccc23)nc(C)c1Cl [II-47] | – |
| > 1000% | 13 µM | CNc1nc(-c2nn(Cc3ccccc3)c3ccccc23)ncc1Cl [II-48] | – |
| > 1000% | 65 µM | N#Cc1cnc(-c2nn(Cc3ccccc3)c3ccccc23)nc1N [II-49] | – |
| 116% | > 31 µM | Clc1nccc(-c2nn(Cc3ccccc3)c3ccccc23)n1 [II-50] | – |
| – | > 30 µM | Cc1cc(-c2nn(Cc3ccccc3)c3ccccc23)nc(Cl)n1 [II-51] | – |
| 428% | 18 µM | Nc1nccc(-c2nn(Cc3ccccc3)c3ccccc23)n1 [II-53] | – |
| 233% | > 33 µM | Cc1cncc(-c2nn(Cc3ccccc3)c3ccccc23)n1 [II-56] | – |
| 271% | – | c1ccc(Cn2nc(-c3ccccn3)c3ccccc32)cc1 [II-58] | – |

Continued, molecule first:

| Compound | activation at 1 µM ([1]; embodiment II) | IC50 [2, 3] | other results |
| --- | --- | --- | --- |
| Cc1cnc(-c2nn(Cc3ccccc3)c3ccccc23)nc1C [II-38, 1-Benzyl-3-(4,5-dimethyl-2-pyrimidyl)indazole] | > 1000% | 11 µM | – |
| c1ccc(Cn2nc(-c3ncccn3)c3ccccc32)cc1 [II-39] | 909% | 11 µM | – |
| Fc1ccccc1Cn1nc(-c2ncccn2)c2ccccc21 [II-40] | > 1000% | 24 µM | – |
| N#Cc1ccccc1Cn1nc(-c2ncccn2)c2ccccc21 [II-41] | 557% | 13 µM | – |
| Cc1cnc(-c2nn(Cc3ccccc3F)c3ccccc23)nc1C [II-43] | > 1000% | – | – |
| Cc1nc(-c2nn(Cc3ccccc3)c3ccccc23)nc(C)c1C [II-46] | 390% | – | – |
| OCCNc1nccc(-c2nn(Cc3ccccc3)c3ccccc23)n1 [II-52] | 397% | 14 µM | – |
| c1ccc(Cn2nc(-c3cnccn3)c3ccccc32)cc1 [II-55] | – | > 35 µM | – |
| Cc1cccc(-c2nn(Cc3ccccc3)c3ccccc23)n1 [II-59] | 268% | > 33 µM | – |
| Cc1cc(C)c(C#N)c(-c2nn(Cc3ccccc3)c3ccccc23)n1 [II-60] | – | > 30 µM | – |
| Cc1cc(Cl)cc(-c2nn(Cc3ccccc3)c3ccccc23)n1 [II-61] | – | > 30 µM | – |
| Cc1nc(-c2nn(Cc3ccccc3)c3ccccc23)oc1CO [III-75] | – | – | activation at 1 µM ([1]; embodiment III): > 1000%; IC50 [2, 4]: 2.2 µM |
| OCc1nnc(-c2nn(Cc3ccccc3F)c3ccccc23)o1 [III-76] | – | – | % increase in cGMP ([1]; embodiment III): 397%; IC50 ([2]; embodiment III): 7.4 µM |
| CC(=O)OCc1oc(-c2nn(Cc3ccccc3)c3ccccc23)nc1C [III-77] | – | – | activation at 1 µM ([1]; embodiment III): > 1000%; IC50 [2, 4]: 8.3 µM |
| CC(=O)OCc1nnc(-c2nn(Cc3ccccc3F)c3ccccc23)o1 [III-78] | – | – | activation at 1 µM ([1]; embodiment III): 223%; IC50 [2, 4]: 10 µM |
| OCc1nnc(-c2nn(Cc3ccccc3F)c3ccccc23)o1 [III-79] | – | – | % increase in cGMP ([1]; embodiment III): 124%; IC50 [2, 4]: 13 µM |
| Cc1coc(-c2nn(Cc3ccccc3F)c3ccccc23)n1 [III-80] | – | – | activation at 1 µM ([1]; embodiment III): > 1000%; IC50 [2, 4]: 3.6 µM |

| Compound | activation at 1 µM ([1]; embodiment II) | IC50 [2, 3] | other results |
| --- | --- | --- | --- |
| OCc1nnc(-c2nn(Cc3ccccc3)c3ccccc23)o1 [III-81] | – | – | activation at 1 µM ([1]; embodiment III): 110%; IC50 [2, 4]: 12 µM |
| OCc1csc(-c2nn(Cc3ccccc3)c3ccccc23)n1 [III-82] | – | – | activation at 1 µM ([1]; embodiment III): 455%; IC50 [2, 4]: 15 µM |
| c1ccc(Cn2nc(-c3ncco3)c3ccccc32)cc1 [III-87] | – | – | activation at 1 µM ([1]; embodiment III): 268%; IC50 [2, 4]: 19 µM |
| CCc1coc(-c2nn(Cc3ccccc3)c3ccccc23)n1 [III-88] | – | – | IC50 [2, 4]: 7.1 µM |
| COCc1oc(-c2nn(Cc3ccccc3)c3ccccc23)nc1C [III-90] | – | – | IC50 [2, 4]: 4.1 µM |
| CCOCc1oc(-c2nn(Cc3ccccc3)c3ccccc23)nc1C [III-91] | – | – | activation at 1 µM ([1]; embodiment III): 479% |
| OCc1cnc(-c2nn(Cc3ccccc3)c3ccccc23)s1 [III-92] | – | – | activation at 1 µM ([1]; embodiment III): 319% |
| CCOC(=O)c1coc(-c2nn(Cc3ccccc3)c3ccccc23)n1 [III-93] | – | – | activation at 1 µM ([1]; embodiment III): 271% |
| OCc1cnc(-c2nn(Cc3ccccc3F)c3ccccc23)s1 [III-95] | – | – | IC50 [2, 4]: 2.4 µM |
| O=Cc1ccc(-c2nn(Cc3ccccc3)c3ccccc23)o1 [IV-138, 1-Benzyl-3-(5-formylfuran-2-yl)-indazole] | – | – | activation at 1 µM ([1]; embodiment IV): 324% |
| CC(O)c1ccc(-c2nn(Cc3ccccc3)c3ccccc23)o1 (centres unmarked) [IV-139, 1-[5-(1-Benzylindazol-3-yl)-furan-2-yl]-ethanol] | – | – | activation at 1 µM ([1]; embodiment IV): 723%; IC50 [2, 5]: 12 µM |
| CC(=O)c1ccc(-c2nn(Cc3ccccc3)c3ccccc23)o1 [IV-140, 3-(5-Acetylfuran-2-yl)-1-benzyl-indazole] | – | – | activation at 1 µM ([1]; embodiment IV): 619%; IC50 [2, 5]: 12 to 17 µM |
| O=[N+]([O-])c1ccc(-c2nn(Cc3ccccc3)c3ccccc23)o1 [IV-143, 1-Benzyl-3-(5-nitrofuran-2-yl)-indazole] | – | – | activation at 1 µM ([1]; embodiment IV): > 1000% |
| O=Cc1ccc(-c2nn(Cc3ccc(F)cc3)c3ccccc23)o1 [IV-148] | – | – | activation at 1 µM ([1]; embodiment IV): 978%; IC50 [2, 5]: 6.7 µM |
| O/N=C/c1ccc(-c2nn(Cc3ccccc3)c3ccccc23)o1 [IV-153] | – | – | activation at 1 µM ([1]; embodiment IV): 341%; IC50 [2, 5]: 9.1 µM |
| N#Cc1cccc(Cn2nc(-c3ccc(CO)o3)c3ccccc32)c1 [IV-166] | – | – | IC50 [2, 5]: 18 µM |
